pIC50: −log10 of the molar value. Read-outs that look alike come from different tables or passages of the source.
Tests used:
[1] = tested on: E. coli TG1 + P. aeruginosa PA14; assay: Mixed-species E. coli-P. aeruginosa biofilm assay (peg, crystal violet); assay type: cell-based, Escherichia coli + Pseudomonas aeruginosa
Description: Overnight cultures of E. coli TG1 and P. aeruginosa PA14 were diluted 1/100 in the same vial of TSB diluted 1/20 to form a mixed-culture suspension. Next, 2-fold serial dilutions of the compounds (dissolved in 100% DMSO or ethanol) in 100 μl liquid broth (TSB diluted 1/20) per well were prepared in the microtiter plate of the Calgary biofilm device (Nunc no. 269789) in duplicate or triplicate with a maximum concentration of 1,600 μM and a minimum concentration of 0.8 μM. One hundred microliters of the mixed-culture suspension was added to each well of the microtiter plate, resulting in a total volume of 200 μl medium per well (final concentration range of compounds, 800 μM [2% DMSO or ethanol] to 0.4 μM [0.001% DMSO or ethanol]). The pegged lid was placed on the microtiter plate, and the plate was incubated for 72 h at 37°C, which allowed biofilm formation on the pegs (Nunc no. 269789) of the Calgary biofilm device. After 72 h, the biofilm was colored with crystal violet as described above ([74]). The OD570 (biofilm cells) and OD600 (planktonic cells) were measured, and the BIC50 and the IC50, respectively, were calculated.

[2] = tested on: P. aeruginosa PA14; assay: Monospecies bacterial biofilm inhibition, static peg assay; assay type: cell-based, Pseudomonas aeruginosa; conditions: Pseudomonas aeruginosa
Description: (§1) A static peg assay, described previously ([27], [74]), was used for bacterial biofilm formation. The Calgary biofilm device consists of a platform carrying 96 polystyrene pegs (Nunc no. 445497) that fits as a microtiter plate lid, with 1 peg hanging into each microtiter plate well (Nunc no. 269789). Twofold serial dilutions of the compounds (dissolved in 100% dimethyl sulfoxide [DMSO] or ethanol) in 100 μl liquid broth (TSB diluted 1/20) per well were prepared in the microtiter plate in duplicate or triplicate with a maximum concentration of 1,600 μM and a minimum concentration of 0.8 μM. Subsequently, an overnight culture of S. Typhimurium ATCC 14028, P. aeruginosa PA14, E. coli TG1, S. epidermidis, S. aureus SH1000, or S. aureus ATCC 6538 (all grown in LB) was diluted 1:100 into TSB diluted 1/20 (or TSB for S. epidermidis, S. aureus SH1000, and S. aureus ATCC 6538), whereas overnight cultures of S. liquefaciens MG44 and B. cepacia LMG1222T were diluted 1:50 into TSB diluted 1/20. P. gingivalis ATCC 33277 cultures were diluted in TSB diluted 1/20 to have a final concentration of 1 × 10^8 cells/ml. Next, 100 μl was added to each well of the microtiter plate, resulting in a total volume of 200 μl medium per well (final concentration range of compounds, 800 μM [2% DMSO or ethanol] to 0.4 μM [0.001% DMSO or ethanol]). In the next step, the pegged lid was placed on the microtiter plate and the plate was incubated for 24 h or 48 h at 25°C or 37°C without shaking. At 37°C, the plates were placed in a sealed container with wet towels on the bottom to prevent evaporation of the growth medium. Biofilms of P. gingivalis ATCC 33277 were grown anaerobically at 37°C for 72 h. During this incubation period, biofilms were formed on the surface of the pegs. After incubation, the optical density at 600 nm (OD600) for the planktonic cells in the microtiter plate was measured using a Synergy MX multimode reader (BioTek, Winooski, VT). This gives a first indication of the effect of the compounds on planktonic growth. For quantification of biofilm formation, the pegs were washed once in 200 μl PBS. The remaining attached bacteria were stained for 30 min with 200 μl 0.1% (wt/vol) crystal violet in an isopropanol-methanol-PBS solution (1:1:18, vol/vol). Excess stain was rinsed off by placing the pegs in a 96-well plate filled with 200 μl distilled water per well. After air drying of the pegs (30 min), the dye bound to the adherent biofilm was extracted with 30% glacial acetic acid (200 μl per well of a 96-well plate). The optical density at 570 nm (OD570) of each well was measured using a Synergy MX multimode reader (BioTek, Winooski, VT). The concentration of each compound needed to inhibit biofilm formation by 50% (BIC50) and the concentration of each compound needed to inhibit planktonic growth by 50% (IC50) were determined from the concentration gradient by using nonlinear curve fitting (GraphPad Prism software, version 5; GraphPad Software, Inc., La Jolla, CA). In the same assay, the effect on planktonic growth was evaluated. The activity was considered biofilm specific if the BIC50 was at least two times lower than the IC50. Data represent the means from at least 3 technical repeats with the corresponding 95% confidence intervals (provided in the supplemental material).

[3] = tested on: S. aureus ATCC 6538; assay: Monospecies bacterial biofilm inhibition, static peg assay (Calgary device, crystal violet; planktonic OD600); assay type: cell-based, Staphylococcus aureus
Description: as §1

[4] = tested on: C. albicans SC5314; assay: Inhibition of C. albicans biofilms, CellTiter-Blue quantification; assay type: cell-based, Candida albicans; conditions: Candida albicans; C. albicans SC5314, 37°C, CTB method; read-out: BIC50 (μM) for C. albicans SC5314 (37°C)
Description: The potential of the compounds to prevent C. albicans SC5314 biofilm formation was assessed using the CellTiter-Blue (CTB) quantification method ([75]). […]. Twofold serial dilutions of the compounds (dissolved in 100% DMSO or ethanol) in 100 μl RPMI 1640 medium per well were prepared in a round-bottom polystyrene 96-well microtiter plate (TPP; Trasadingen, Switzerland) in duplicate or triplicate with a maximum concentration of 1,600 μM and a minimum concentration of 0.8 μM. One hundred microliters of the cell suspension was added to each well of the microtiter plate, resulting in a total volume of 200 μl medium per well (final concentration range of compounds, 800 μM [2% DMSO or ethanol] to 0.4 μM [0.001% DMSO or ethanol]). After 16 h of static incubation at 37°C, the biofilms were washed and quantified by the CTB method as described previously ([73]).

[5] = tested on: E. coli TG1; assay: Monospecies bacterial biofilm inhibition, static peg assay; assay type: cell-based, Escherichia coli; conditions: Escherichia coli
Description: as §1

[6] = 72 h, mixed E. coli TG1 + P. aeruginosa PA14, 37°C, read-out: IC50 (planktonic growth)
[7] = 72 h, mixed E. coli TG1 + P. aeruginosa PA14 biofilm, 37°C, read-out: BIC50
[8] = PA14, P. aeruginosa PA14, 25°C, read-out: BIC50
[9] = PA14, P. aeruginosa PA14, 37°C, read-out: BIC50
[10] = PA14, P. aeruginosa PA14, 37°C, read-out: IC50 (planktonic growth)
[11] = Staphylococcus aureus, ATCC6538, read-out: BIC50 (concentration needed to inhibit biofilm formation by 50%), S. aureus ATCC 6538, 37°C
[12] = Staphylococcus aureus, ATCC6538, read-out: IC50 (concentration needed to inhibit planktonic growth by 50%), S. aureus ATCC 6538, 37°C, planktonic OD600
[13] = TG1, E. coli TG1, 37°C, read-out: BIC50
[14] = TG1, E. coli TG1, 37°C, read-out: IC50 (planktonic growth)
[15] = PA14, P. aeruginosa PA14, 25°C, read-out: IC50 (planktonic growth)
[16] = mixed E. coli TG1 + P. aeruginosa PA14, 37°C, read-out: IC50 (planktonic growth)
[17] = mixed E. coli TG1 + P. aeruginosa PA14 biofilm, 37°C, read-out: BIC50
[18] = Staphylococcus aureus, ATCC6538, S. aureus ATCC 6538, 37°C, planktonic OD600, read-out: IC50 (concentration needed to inhibit planktonic growth by 50%)
[19] = Staphylococcus aureus, ATCC6538, S. aureus ATCC 6538, 37°C, read-out: BIC50 (concentration needed to inhibit biofilm formation by 50%)
[20] = TG1, E. coli TG1, 25°C, read-out: BIC50
[21] = TG1, E. coli TG1, 25°C, read-out: IC50 (planktonic growth)

SMILES	pIC50 [1, 6]	pIC50 [1, 7]	pIC50 [2, 8]	pIC50 [2, 9]	pIC50 [2, 10]	pIC50 [3, 11]	pIC50 [3, 12]	IC50 [4] [µM]	pIC50 [5, 13]	pIC50 [5, 14]	pIC50 ([3]; read-out: BIC50 (concentration needed to inhibit biofilm formation by 50%), S. aureus ATCC 6538, 37°C)	pIC50 [2, 15]	pIC50 [1, 16]	pIC50 [1, 17]	pIC50 [3, 18]	pIC50 [3, 19]	pIC50 [5, 20]	pIC50 [5, 21]
CCCCCn1c(-c2ccccc2)cnc1N [Compound 1]	4.22	4.13	5.68	3.98	4.34	4.23	3.64	145	~4.32	4.47								
CCCCCCCCn1c(-c2ccc(Cl)cc2)cnc1N [Compound 2]	4.70	4.43	5.40	3.93	5.00	5.22 to 5.70	5.11	6.2	~5.19	5.11	5.55							
CC(C)CNc1ncc(-c2ccc(Cl)cc2)[nH]1 [Compound 3]	< 3.40	5.13	6.05	< 3.40	< 3.40	4.02	~4.02	93.9	3.96	4.52								
CCCCNc1ncc(-c2ccc(Br)cc2)[nH]1 [Compound 4]	< 3.40	4.75	5.01	< 3.40	< 3.40	~4.91	4.22	66.7	4.07	4.64								
Clc1ccc(-c2cnc(NC3CCCC3)[nH]2)cc1 [Compound 5]	< 3.40	6.30	4.87	< 3.40	< 3.40	4.46	4.21	64	~4.34	4.77								
Brc1ccc(-c2cnc(NCCn3cc(C4CC4)nn3)[nH]2)cc1 [Compound 6]	< 3.40	4.46	4.15	< 3.40	< 3.40	4.12	< 3.40	> 400	~3.72	3.74		< 3.40						
CCCCCCCCn1c(-c2ccccc2)cnc1NCC(C)C [Compound 8a]			< 3.40	< 3.40	4.18			9.3	4.39	4.99		4.12	< 3.40	5.18	4.75	~4.64	~4.33	4.29
CCCCCCCCn1c(-c2ccc(Cl)cc2)cnc1NCC(C)C [Compound 8b]			< 3.40	< 3.40	3.94			11	3.48	5.21		3.65	< 3.40	< 3.40	5.03	5.24	4.53	4.04
CCCCCCCCn1c(-c2ccc(Br)cc2)cnc1NCC(C)C [Compound 8c]			< 3.40	< 3.40	3.46			> 100	< 3.40	4.13		< 3.40	< 3.40	< 3.40	3.76	4.39	< 3.40	3.82
